Measured values taken from patent US20240300958A1, “COMPOUNDS AND THE USES AND PHARMACEUTICAL COMPOSITIONS THEREOF” (BEIJING YOUZHUJU NETWORK TECHNOLOGY CO. LTD., priority 2023, published 2024).
Where two headings read alike, the source gives them in different places.

Assays:
Assay in all cases: Kinase inhibition profile (HTRF / ADP Glo kinase assay)
Type in all cases: biochemical
[1] = target: ABL1 (Homo sapiens (Human), UniProt P00519)
Protocol: (§1) HTRF kinase assay: 2×ATP and substrate solution as well as 2× kinase and metal solution were prepared with assay buffer. 25 nL of compound was transferred to 384-well assay plate by Echo 655. After centrifugation, 2.5 μL of 2× kinase/metal ion solution was added to the 384-well assay plate followed by incubation at 25° C. for 10 min. 2.5 μL of 2× substrate and ATP solution was added to the wells followed by incubation at 25° C. for 60 min. 2× XL665 and antibody solution was prepared with assay buffer. 5 μL of kinase detection reagent was added to the wells followed by incubation at 25° C. for 60 min. Fluorescence signals at 620 nm (Cryptate) and 665 nm (XL665) were read with a microtiter plate reader. ADP Glo kinase assay: 2×ATP and substrate solution as well as 2× kinase and metal solution were prepared with assay buffer. 20 nL of compound was transferred to 384-well assay plate by Echo 655. 2 μL of 2× kinase/metal ion solution was added followed by incubation at 25° C. for 10 min in the 384-well assay plate. 2 μL of 2× substrate and ATP solution was added to the wells followed by incubation at 25° C. for 60 min. 4 μL of ADP Glo reagent was added to the wells followed by incubation at 25° C. for 40 min. 8 μL of kinase test reagent was added to the wells followed by incubation at 25° C. for 40 min. The luminescence signals were recorded on a microtiter plate reader. Data analysis: the reaction control (0.5% DMSO) reading was set to 0% inhibition, and the background (10 μM positive control) reading was set to 100% inhibition, then the percent inhibition for each test solution was calculated and the results are shown in Table 2 and FIG. 3.

[2] = target: AKT1 (Homo sapiens (Human), UniProt P31749)
Protocol: as §1

[3] = target: ALK 4 (Homo sapiens (Human), UniProt P36896)
Protocol: as §1

[4] = target: AMPKαl/β1/γ1 (Homo sapiens (Human), UniProt Q13131)
Protocol: as §1

[5] = target: CDK2/CycE1 (Homo sapiens (Human), UniProt P24941)
Protocol: as §1

[6] = target: CHK1 (Homo sapiens (Human), UniProt O14757)
Protocol: as §1

[7] = target: CHK2 (Homo sapiens (Human), UniProt O96017)
Protocol: as §1

[8] = target: EGFR (Homo sapiens (Human), UniProt P00533)
Protocol: as §1

[9] = target: Erk2 (Homo sapiens (Human), UniProt P28482)
Protocol: as §1

[10] = target: FGFR1 (Homo sapiens (Human), UniProt P11362)
Protocol: as §1

[11] = target: ITK (Homo sapiens (Human), UniProt Q08881)
Protocol: as §1

[12] = target: KDR (Homo sapiens (Human), UniProt P35968)
Protocol: as §1

[13] = target: NEK2 (Homo sapiens (Human), UniProt P51955)
Protocol: as §1

[14] = target: PAK2 (Homo sapiens (Human), UniProt Q13177)
Protocol: as §1

[15] = target: PLK1 (Homo sapiens (Human), UniProt P53350)
Protocol: as §1

[16] = target: TIE2 (Homo sapiens (Human), UniProt Q02763)
Protocol: as §1

[17] = target: TSSK1 (Homo sapiens (Human), UniProt Q9BXA7)
Protocol: as §1

[18] = target: p38α (Homo sapiens (Human), UniProt Q16539)
Protocol: as §1

[19] = 1 uM Compound C1, read-out: % Inhibition (First measurement)
[20] = 1 uM Compound C1, read-out: % Inhibition (Second measurement)
[21] = 1 uM Compound C1, read-out: Average inhibition (%)

Erk2, sequence (P28482 whole entry, species assumed): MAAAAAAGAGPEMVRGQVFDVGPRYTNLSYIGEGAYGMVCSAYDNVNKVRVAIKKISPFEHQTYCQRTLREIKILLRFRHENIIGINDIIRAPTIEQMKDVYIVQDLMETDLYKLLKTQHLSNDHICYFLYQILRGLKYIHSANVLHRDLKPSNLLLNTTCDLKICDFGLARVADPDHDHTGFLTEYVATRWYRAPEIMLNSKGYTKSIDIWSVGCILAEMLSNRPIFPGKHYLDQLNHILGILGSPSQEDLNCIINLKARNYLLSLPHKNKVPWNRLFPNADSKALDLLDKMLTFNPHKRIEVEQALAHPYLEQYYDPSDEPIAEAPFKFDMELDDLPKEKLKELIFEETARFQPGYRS
FGFR1, sequence (P11362 22-822, species assumed): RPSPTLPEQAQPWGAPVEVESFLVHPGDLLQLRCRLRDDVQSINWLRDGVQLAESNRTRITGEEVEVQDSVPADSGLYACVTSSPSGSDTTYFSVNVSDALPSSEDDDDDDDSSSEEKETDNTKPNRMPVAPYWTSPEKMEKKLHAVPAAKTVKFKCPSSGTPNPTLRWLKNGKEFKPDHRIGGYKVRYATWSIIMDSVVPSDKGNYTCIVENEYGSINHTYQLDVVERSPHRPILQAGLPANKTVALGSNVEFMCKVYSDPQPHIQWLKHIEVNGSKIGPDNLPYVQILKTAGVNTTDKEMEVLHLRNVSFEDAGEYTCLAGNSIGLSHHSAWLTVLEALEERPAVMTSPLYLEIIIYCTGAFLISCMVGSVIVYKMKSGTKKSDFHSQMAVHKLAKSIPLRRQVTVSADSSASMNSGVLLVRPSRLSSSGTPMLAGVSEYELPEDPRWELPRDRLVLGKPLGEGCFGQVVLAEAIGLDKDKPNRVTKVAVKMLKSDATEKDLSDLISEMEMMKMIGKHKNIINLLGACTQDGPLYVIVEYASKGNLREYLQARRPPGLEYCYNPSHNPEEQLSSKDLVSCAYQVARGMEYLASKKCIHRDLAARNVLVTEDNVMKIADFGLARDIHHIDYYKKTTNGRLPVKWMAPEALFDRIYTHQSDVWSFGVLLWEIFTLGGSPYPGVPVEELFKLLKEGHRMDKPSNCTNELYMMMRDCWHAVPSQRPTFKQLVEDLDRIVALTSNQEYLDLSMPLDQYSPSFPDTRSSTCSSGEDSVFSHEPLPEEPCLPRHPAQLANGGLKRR
TSSK1, sequence (Q9BXA7 whole entry, species assumed): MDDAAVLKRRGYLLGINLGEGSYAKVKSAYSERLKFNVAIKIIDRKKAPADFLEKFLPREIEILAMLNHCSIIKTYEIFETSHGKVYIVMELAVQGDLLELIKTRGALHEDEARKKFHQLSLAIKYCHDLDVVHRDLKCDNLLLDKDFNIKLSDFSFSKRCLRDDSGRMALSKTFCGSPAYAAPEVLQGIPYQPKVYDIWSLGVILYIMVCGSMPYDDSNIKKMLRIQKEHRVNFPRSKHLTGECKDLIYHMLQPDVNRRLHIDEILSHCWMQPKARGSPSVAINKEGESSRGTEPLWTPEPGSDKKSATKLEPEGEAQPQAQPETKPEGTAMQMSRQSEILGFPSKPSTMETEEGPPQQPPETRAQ
AKT1, sequence (P31749 whole entry, species assumed): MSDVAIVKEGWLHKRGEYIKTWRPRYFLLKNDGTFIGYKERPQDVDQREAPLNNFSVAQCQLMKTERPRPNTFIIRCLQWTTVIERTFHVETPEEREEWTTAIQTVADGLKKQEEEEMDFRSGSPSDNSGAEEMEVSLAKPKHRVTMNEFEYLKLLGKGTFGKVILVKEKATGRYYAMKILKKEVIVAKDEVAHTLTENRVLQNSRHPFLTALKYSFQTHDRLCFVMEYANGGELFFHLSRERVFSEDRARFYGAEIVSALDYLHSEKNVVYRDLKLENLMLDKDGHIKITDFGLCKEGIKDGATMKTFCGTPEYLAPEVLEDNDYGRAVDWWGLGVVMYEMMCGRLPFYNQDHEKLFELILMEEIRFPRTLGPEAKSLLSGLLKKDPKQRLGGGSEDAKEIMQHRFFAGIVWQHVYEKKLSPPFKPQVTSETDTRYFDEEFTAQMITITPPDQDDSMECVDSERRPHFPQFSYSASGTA
ABL1, sequence (P00519 whole entry, species assumed): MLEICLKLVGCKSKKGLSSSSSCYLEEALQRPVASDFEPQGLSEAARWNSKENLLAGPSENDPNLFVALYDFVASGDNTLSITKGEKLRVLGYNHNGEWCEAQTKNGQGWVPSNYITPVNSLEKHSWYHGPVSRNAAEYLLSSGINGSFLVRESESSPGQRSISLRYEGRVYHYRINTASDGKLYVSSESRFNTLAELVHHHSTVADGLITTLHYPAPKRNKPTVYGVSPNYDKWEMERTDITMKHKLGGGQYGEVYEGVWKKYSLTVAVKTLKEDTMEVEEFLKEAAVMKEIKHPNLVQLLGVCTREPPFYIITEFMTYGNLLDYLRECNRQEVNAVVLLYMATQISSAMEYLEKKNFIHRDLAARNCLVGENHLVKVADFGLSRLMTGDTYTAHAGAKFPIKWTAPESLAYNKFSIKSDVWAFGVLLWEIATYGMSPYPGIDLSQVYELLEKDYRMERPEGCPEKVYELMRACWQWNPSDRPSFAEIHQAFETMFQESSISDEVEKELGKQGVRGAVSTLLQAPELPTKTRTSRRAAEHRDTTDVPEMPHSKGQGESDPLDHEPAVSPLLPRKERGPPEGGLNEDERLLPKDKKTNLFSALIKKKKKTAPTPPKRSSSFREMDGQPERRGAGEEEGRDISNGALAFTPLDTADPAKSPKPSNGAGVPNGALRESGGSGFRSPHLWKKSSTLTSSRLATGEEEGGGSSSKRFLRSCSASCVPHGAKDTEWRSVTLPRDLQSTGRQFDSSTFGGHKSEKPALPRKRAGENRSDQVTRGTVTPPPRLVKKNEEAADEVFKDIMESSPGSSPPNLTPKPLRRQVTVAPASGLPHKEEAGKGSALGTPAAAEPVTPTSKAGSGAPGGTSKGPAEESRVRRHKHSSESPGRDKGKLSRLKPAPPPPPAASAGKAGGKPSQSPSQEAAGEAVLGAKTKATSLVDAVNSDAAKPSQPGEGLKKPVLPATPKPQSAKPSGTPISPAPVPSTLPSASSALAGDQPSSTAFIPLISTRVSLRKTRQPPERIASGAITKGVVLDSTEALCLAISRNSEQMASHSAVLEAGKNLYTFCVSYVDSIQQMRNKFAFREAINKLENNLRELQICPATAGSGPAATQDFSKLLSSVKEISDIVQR
PAK2, sequence (Q13177 whole entry, species assumed): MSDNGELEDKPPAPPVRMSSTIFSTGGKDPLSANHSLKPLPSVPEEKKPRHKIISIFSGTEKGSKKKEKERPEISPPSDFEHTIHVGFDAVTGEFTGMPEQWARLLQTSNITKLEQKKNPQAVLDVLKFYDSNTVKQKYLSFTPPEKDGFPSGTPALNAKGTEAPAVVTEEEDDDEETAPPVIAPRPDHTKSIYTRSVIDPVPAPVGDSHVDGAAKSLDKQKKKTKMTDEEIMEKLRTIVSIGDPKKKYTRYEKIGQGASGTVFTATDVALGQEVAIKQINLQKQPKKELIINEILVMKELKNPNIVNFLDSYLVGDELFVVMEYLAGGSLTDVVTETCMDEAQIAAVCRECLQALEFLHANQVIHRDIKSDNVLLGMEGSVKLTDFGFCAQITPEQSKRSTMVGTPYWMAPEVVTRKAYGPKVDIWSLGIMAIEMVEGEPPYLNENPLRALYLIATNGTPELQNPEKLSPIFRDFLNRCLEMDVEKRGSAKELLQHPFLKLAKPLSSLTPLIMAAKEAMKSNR
ALK 4, sequence (P36896 24-505, species assumed): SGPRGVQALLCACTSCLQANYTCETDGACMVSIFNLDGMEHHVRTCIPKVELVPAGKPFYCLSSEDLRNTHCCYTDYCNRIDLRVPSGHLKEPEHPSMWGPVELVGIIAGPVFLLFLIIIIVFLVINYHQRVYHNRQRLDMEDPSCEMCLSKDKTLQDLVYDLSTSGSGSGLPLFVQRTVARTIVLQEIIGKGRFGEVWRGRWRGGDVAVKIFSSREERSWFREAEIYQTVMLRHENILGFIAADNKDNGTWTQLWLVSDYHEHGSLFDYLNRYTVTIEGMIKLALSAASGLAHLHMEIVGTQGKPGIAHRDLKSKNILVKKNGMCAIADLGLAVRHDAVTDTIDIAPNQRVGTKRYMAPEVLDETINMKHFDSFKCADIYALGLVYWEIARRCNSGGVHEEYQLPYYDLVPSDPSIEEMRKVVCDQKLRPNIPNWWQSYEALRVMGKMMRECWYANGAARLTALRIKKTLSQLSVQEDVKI
NEK2, sequence (P51955 whole entry, species assumed): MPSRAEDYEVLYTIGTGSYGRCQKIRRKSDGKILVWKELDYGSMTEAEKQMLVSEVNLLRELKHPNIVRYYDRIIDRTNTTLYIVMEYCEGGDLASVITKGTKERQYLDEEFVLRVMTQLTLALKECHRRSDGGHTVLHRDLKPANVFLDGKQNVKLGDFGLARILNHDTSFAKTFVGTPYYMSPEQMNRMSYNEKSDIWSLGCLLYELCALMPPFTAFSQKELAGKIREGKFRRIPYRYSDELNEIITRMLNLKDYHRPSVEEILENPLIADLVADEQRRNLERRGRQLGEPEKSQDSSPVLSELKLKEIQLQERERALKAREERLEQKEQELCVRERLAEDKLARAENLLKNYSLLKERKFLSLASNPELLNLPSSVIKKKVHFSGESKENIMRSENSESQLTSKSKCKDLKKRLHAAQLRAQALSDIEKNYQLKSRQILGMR
p38α, sequence (Q16539 whole entry): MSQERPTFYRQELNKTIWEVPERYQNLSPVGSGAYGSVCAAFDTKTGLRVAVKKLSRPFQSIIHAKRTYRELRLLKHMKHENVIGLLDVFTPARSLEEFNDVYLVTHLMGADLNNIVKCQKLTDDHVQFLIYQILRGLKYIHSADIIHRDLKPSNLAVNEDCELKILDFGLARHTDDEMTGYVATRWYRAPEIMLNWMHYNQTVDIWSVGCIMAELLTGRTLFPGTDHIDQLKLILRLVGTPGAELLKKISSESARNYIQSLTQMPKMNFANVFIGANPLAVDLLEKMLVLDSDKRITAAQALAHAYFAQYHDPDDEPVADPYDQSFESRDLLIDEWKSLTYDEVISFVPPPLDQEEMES

inhibition at 1 µM [1, 19]: 43.2%
inhibition at 1 µM [1, 20]: 50.7%
inhibition at 1 µM [1, 21]: 47%
inhibition at 1 µM [2, 19]: 7.17%
inhibition at 1 µM [2, 20]: 4.56%
inhibition at 1 µM [2, 21]: 5.87%
inhibition at 1 µM [3, 19]: -6.24%
inhibition at 1 µM [3, 20]: 14.8%
inhibition at 1 µM [3, 21]: 4.25%
inhibition at 1 µM [4, 19]: 2.13%
inhibition at 1 µM [4, 20]: -1.96%
inhibition at 1 µM [4, 21]: 0.09%
inhibition at 1 µM [5, 19]: 0.53%
inhibition at 1 µM [5, 20]: 12.6%
inhibition at 1 µM [5, 21]: 6.56%
inhibition at 1 µM [6, 19]: -10.6%
inhibition at 1 µM [6, 20]: -13.6%
inhibition at 1 µM [6, 21]: -12.1%
inhibition at 1 µM [7, 19]: 0.35%
inhibition at 1 µM [7, 20]: 7.34%
inhibition at 1 µM [7, 21]: 3.85%
inhibition at 1 µM [8, 19]: -6.86%
inhibition at 1 µM [8, 20]: 1.78%
inhibition at 1 µM [8, 21]: -2.54%
inhibition at 1 µM [9, 19]: 20.2%
inhibition at 1 µM [9, 20]: 19.3%
inhibition at 1 µM [9, 21]: 19.8%
inhibition at 1 µM [10, 19]: 0.18%
inhibition at 1 µM [10, 20]: -18.2%
inhibition at 1 µM [10, 21]: -9.02%
inhibition at 1 µM [11, 19]: -3.82%
inhibition at 1 µM [11, 20]: -19.2%
inhibition at 1 µM [11, 21]: -11.5%
inhibition at 1 µM [12, 19]: 2.42%
inhibition at 1 µM [12, 20]: 1.61%
inhibition at 1 µM [12, 21]: 2.01%
inhibition at 1 µM [13, 19]: 8.18%
inhibition at 1 µM [13, 20]: 2.89%
inhibition at 1 µM [13, 21]: 5.54%
inhibition at 1 µM [14, 19]: 2.23%
inhibition at 1 µM [14, 20]: 12.1%
inhibition at 1 µM [14, 21]: 7.17%
inhibition at 1 µM [15, 19]: 24.1%
inhibition at 1 µM [15, 20]: 20.6%
inhibition at 1 µM [15, 21]: 22.4%
inhibition at 1 µM [16, 19]: -5.65%
inhibition at 1 µM [16, 20]: 6.2%
inhibition at 1 µM [16, 21]: 0.28%
inhibition at 1 µM [17, 19]: -15.1%
inhibition at 1 µM [17, 20]: -3.43%
inhibition at 1 µM [17, 21]: -9.28%
inhibition at 1 µM [18, 19]: 3.39%
inhibition at 1 µM [18, 20]: -3.27%
inhibition at 1 µM [18, 21]: 0.06%
SMILES: Cc1ccc(C(=O)Nc2ccccn2)cc1C#Cc1cnc2cc(C3=CCCCC3)cnn12 [Compound C1, 3-{2-[7-(cyclohex-1-en-1-yl)imidazo[1,2-b]pyridazin-3-yl]ethynyl}-4-methyl-N-(pyridin-2-yl)benzamide]
